US8586579B2, “Anellated pyridine compounds” (Hoffmann-La Roche Inc., priority 2010, dated 2013)
Where two headings read alike, the source gives them in different places.

Legend:
human D2 receptor = human D2 receptor (Homo sapiens (Human), UniProt P14416); test: Radioligand binding assay, [3H]-spiperone, human D2 receptor; conditions: membranes of HEK293 EBNA cells expressing human D2; 0.7 nM [3H]-spiperone
Protocol: (§1) HEK293 EBNA cells were transiently transfected with expression plasmids encoding for the human D2 or D3 or for the human 5-HT2A receptor, respectively. The cells were harvested 48 h post-transfection, washed three times with cold PBS and stored at −80° C. prior to use. The pellet was suspended in cold 50 mM Tris-HCl buffer comprising 10 mM EDTA (pH 7.4) and was homogenized with a Polytron (Kinematica AG, Basel, Switzerland) for 20-30 sec at 12.000 rpm. After centrifugation at 48.000×g for 30 min at 4° C., the pellet was resuspended in cold 10 mM Tris-HCl buffer comprising 0.1 mM EDTA (pH 7.4), homogenized, and centrifuged as above. This pellet was further resuspended in a smaller volume of ice cold 10 mM Tris-HCl buffer comprising 0.1 mM EDTA (pH 7.4) and homogenized with a Polytron for 20-30 sec at 12.000 rpm. The protein content of this homogenate was determined with the Bio-Rad (Bradford) Protein Assay (Biorad Laboratories GmbH, München, Germany) according to the instructions of the manufacturer using gamma globulin as the standard. This homogenate was stored at −80° C. in aliquots and thawed immediately prior to use.
(§2) Aliquots of membrane preparations were thawed at RT, resuspended in assay buffer (D2, D3: 50 mM Tris-HCl, 120 mM NaCl, 5 mM MgCl2, 1 mM EDTA, 5 mM KCl, 1.5 mM CaCl2, pH=7.4; 5-HT2A: 50 mM Tris-HCl, 10 mM MgCl2, 1 mM EGTA, pH=7.4), homogenized with a Polytron for 20-30 sec at 12.000 rpm and adjusted to a final concentration of approximately 7.5 μg protein/well (D2, D3) and 15 μg protein/well (5-HT2A), respectively.
(§3) The binding affinity (Ki) of the compounds was determined using radioligand binding. Membranes were incubated in a total volume of 200 μl with a fixed concentration of radioligand (final concentration approximately 0.7 nM [^3H]-spiperone for D2, 0.5 nM [^3H]-spiperone for D3, and 1.1 nM [^3H]-ketanserin for 5-HT2A) and ten concentrations of test compound in ranging between 10 μM-0.1 nM for 1 h at RT. […] The nonspecific binding was determined with equally composed reaction mixtures in the presence of 10 μM unlabelled spiperone. Per well 45 μl of Microscint 40 (Perkin Elmer, Schwerzenbach, Switzerland) was added, plates for sealed, shaken for 20 min and counted for 3 min on a Topcount Microplate Scintillation Counter (Can berra Packard SA, Zürich, Switzerland) with quenching correction.
(§4) The CPM value for each duplicate of a concentration of competing compound was averaged (y1), then the % specific binding was calculated according to the equation (((y1−non-specific)/(total binding−non-specific))×100). Graphs were plotted with the % specific binding using XLfit, a curve fitting program that iteratively plots the data using Levenberg-Marquardt algorithm. […] The affinity constant (K) was calculated using the Cheng-Prusoff equation Ki=(IC50/1+([L]/Kd), where [L] is the concentration of radioligand and Kd is the dissociation constant of the radioligand at the receptor as determined by the saturation isotherm.

human D3 receptor = human D3 receptor (Homo sapiens (Human), UniProt P35462); test: Radioligand binding assay, [3H]-spiperone, human D3 receptor; conditions: membranes of HEK293 EBNA cells expressing human D3; 0.5 nM [3H]-spiperone
Sequence of human D3 receptor (P35462 whole entry): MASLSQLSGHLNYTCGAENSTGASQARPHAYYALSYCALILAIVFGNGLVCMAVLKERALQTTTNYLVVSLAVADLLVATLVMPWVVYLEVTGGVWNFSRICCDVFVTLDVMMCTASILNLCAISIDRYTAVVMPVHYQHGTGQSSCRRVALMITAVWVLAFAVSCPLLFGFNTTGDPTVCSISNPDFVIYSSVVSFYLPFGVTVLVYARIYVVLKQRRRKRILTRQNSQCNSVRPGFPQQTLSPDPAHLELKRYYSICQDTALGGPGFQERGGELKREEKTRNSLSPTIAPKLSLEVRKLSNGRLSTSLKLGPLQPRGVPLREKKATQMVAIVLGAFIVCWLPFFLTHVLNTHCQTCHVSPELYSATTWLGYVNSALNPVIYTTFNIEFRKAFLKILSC
Protocol: as §1, §2, §3
as §4, with “algorithm. The single site competition analysis equation used was y=A+((B−A)/(1+((x/C)D))), where y is the % specific binding, A is the minimum y, B is the maximum y, C is the IC50, x is the log 10 of the concentration of the competing compound and D is the slope of the curve (the Hill Coefficient).” for “algorithm.”

human 5-HT2A receptor = human 5-HT2A receptor (Homo sapiens (Human), UniProt P28223); test: Radioligand binding assay, [3H]-ketanserin, human 5-HT2A receptor
Sequence of human 5-HT2A receptor (P28223 whole entry): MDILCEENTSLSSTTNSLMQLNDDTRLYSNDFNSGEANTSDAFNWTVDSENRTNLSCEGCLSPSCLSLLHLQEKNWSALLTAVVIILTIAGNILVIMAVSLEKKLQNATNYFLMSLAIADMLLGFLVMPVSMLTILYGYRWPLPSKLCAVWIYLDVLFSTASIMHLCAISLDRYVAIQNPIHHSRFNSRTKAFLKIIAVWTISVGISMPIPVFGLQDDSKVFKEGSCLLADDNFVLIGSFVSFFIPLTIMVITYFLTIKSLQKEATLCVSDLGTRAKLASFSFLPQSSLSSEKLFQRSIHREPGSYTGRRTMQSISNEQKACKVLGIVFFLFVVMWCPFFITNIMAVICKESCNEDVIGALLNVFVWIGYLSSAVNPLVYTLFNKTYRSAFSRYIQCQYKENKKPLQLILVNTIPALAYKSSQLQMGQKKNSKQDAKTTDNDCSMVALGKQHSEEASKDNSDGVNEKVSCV
Protocol: as §1, §2, §3
as §4, with “algorithm. The single site competition analysis equation used was y=A+((B−A)/(1+((x/C)D))), where y is the % specific binding, A is the minimum y, B is the maximum y, C is the IC50, x is the log 10 of the concentration of the competing compound and D is the slope of the curve (the Hill Coefficient).” for “algorithm.”

[1] = membranes of HEK293 EBNA cells expressing human 5-HT2A, 1.1 nM [3H]-ketanserin

Sequence of human D2 receptor (P14416 whole entry): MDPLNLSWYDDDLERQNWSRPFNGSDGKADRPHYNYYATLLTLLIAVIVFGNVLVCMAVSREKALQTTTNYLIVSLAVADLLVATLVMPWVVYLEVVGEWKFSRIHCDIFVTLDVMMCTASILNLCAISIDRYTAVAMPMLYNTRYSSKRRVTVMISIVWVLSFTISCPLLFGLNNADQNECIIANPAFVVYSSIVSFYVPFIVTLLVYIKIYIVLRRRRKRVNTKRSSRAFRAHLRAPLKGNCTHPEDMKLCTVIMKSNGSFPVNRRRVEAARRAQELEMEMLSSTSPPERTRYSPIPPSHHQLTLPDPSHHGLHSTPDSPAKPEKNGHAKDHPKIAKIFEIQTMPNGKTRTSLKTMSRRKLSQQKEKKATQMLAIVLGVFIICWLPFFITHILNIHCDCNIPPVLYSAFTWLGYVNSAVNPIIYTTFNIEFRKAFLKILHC

SMILES	melting point	Ki (human D2 receptor)	Ki (human D3 receptor)	Ki (human 5-HT2A receptor)	Ki (human 5-HT2A receptor; [1])
CS(=O)(=O)CC(=O)N[C@H]1CC[C@H](CCN2CCN(c3nccc4c3CCO4)CC2)CC1 [Example 39, trans-N-(4-{2-[4-(2,3-Dihydrofuro[3,2-c]pyridin-4-yl)-piperazin-1-yl]-ethyl}-cyclohexyl)-methylsulfonyl-acetamide]	260.5 °C	1020 nM	9.8 nM	16.1 nM	
Cc1cnc(N2CCN(CC[C@H]3CC[C@H](NC(=O)CC4CCOCC4)CC3)CC2)c2c1OCC2 [Example 110, trans-N-(4-{2-[4-(7-Methyl-2,3-dihydro-furo[3,2-c]pyridin-4-yl)-piperazin-1-yl]-ethyl}-cyclohexyl)-2-(tetrahydro-pyran-4-yl)-acetamide]	199 °C	2950 nM	69.4 nM		44 nM
O=C(N[C@H]1CC[C@H](CCN2CCN(c3nccc4c3CCO4)CC2)CC1)C(O)C(F)(F)F (mixture of isomers) [Example 112, trans-(RS)—N-(4-{2-[4-(2,3-Dihydro-furo[3,2-c]pyridin-4-yl)-piperazin-1-yl]-ethyl}-cyclohexyl)-3,3,3-trifluoro-2-hydroxy-propionamide]	204 °C		37.9 nM		
O=C(C[C@H]1COCCO1)N[C@H]1CC[C@H](CCN2CCN(c3nccc4c3CCO4)CC2)CC1 [Example 67, trans-N-(4-{2-[4-(2,3-Dihydro-furo[3,2-c]pyridin-4-yl)-piperazin-1-yl]-ethyl}-cyclohexyl)-2-(S)-[1,4]dioxan-2-yl-acetamide]	192 °C	1460 nM			8.15 nM
O=C(N[C@H]1CC[C@H](CCN2CCN(c3nccc4c3CCO4)CC2)CC1)c1ccc(Cl)cc1Cl [Example 132, trans-2,4-Dichloro-N-(4-{2-[4-(2,3-dihydro-furo[3,2-c]pyridin-4-yl)-piperazin-1-yl]-ethyl}-cyclohexyl)-benzamide]	203.5 °C		26.7 nM		21.7 nM
O=C(N[C@H]1CC[C@H](CCN2CCN(c3nccc4c3CCO4)CC2)CC1)C1CCCO1 (mixture of isomers) [Example 43, trans-N-(4-{2-[4-(2,3-Dihydrofuro[3,2-c]pyridin-4-yl)-piperazin-1-yl]-ethyl}-cyclohexyl)-rac-tetrahydrofuran-2-carboxamide]	176.5 °C				6.3 nM
O=C(C[C@@H]1COCCO1)N[C@H]1CC[C@H](CCN2CCN(c3nccc4c3CCO4)CC2)CC1 [Example 61, trans-N-(4-{2-[4-(2,3-Dihydro-furo[3,2-c]pyridin-4-yl)-piperazin-1-yl]-ethyl}-cyclohexyl)-2-(R)-[1,4]dioxan-2-yl-acetamide]	193.5 °C	1120 nM			11.8 nM
O=C(N[C@H]1CC[C@H](CCN2CCN(c3nccc4c3CCO4)CC2)CC1)c1ccnc2ccccc12 [Example 62, Quinoline-4-carboxylic acid trans-(4-{2-[4-(2,3-dihydro-furo[3,2-c]pyridin-4-yl)-piperazin-1-yl]-ethyl}-cyclohexyl)-amide]	210 °C		10.7 nM		3.62 nM
O=C(CC1COCCO1)N[C@H]1CC[C@H](CCN2CCN(c3nccc4c3CCO4)CC2)CC1 (mixture of isomers) [Example 37, trans-N-(4-{2-[4-(2,3-Dihydrofuro[3,2-c]pyridin-4-yl)-piperazin-1-yl]-ethyl}-cyclohexyl)-2-(rac-1,4-dioxan-2-yl)-acetamide]	186 °C	1470 nM			9.7 nM
COCC(=O)N[C@H]1CC[C@H](CCN2CCN(c3nccc4occc34)CC2)CC1 [Example 8, N-{trans-4-[2-(4-Furo[3,2-c]pyridin-4-yl-piperazin-1-yl)-ethyl]-cyclohexyl}-2-methoxy-acetamide]		1160 nM	77.2 nM		4.4 nM
CO[C@@H]1CC[C@@H](CC(=O)N[C@H]2CC[C@H](CCN3CCN(c4nccc5occc45)CC3)CC2)C1 (racemic) [Example 2, N-{trans-4-[2-(4-Furo[3,2-c]pyridin-4-yl-piperazin-1-yl)-ethyl]-cyclohexyl}-2-(trans-3-methoxy-cyclopentyl)-acetamide]		802 nM	28.8 nM		6.4 nM
CCC(=O)N[C@H]1CC[C@H](CCN2CCN(c3nccc4sccc34)CC2)CC1 [Example 18, N-{trans-4-[2-(4-Thieno[3,2-c]pyridin-4-yl-piperazin-1-yl)-ethyl]-cyclohexyl}-propionamide]		163 nM	1.6 nM		2.6 nM
O=C(CCO)N[C@H]1CC[C@H](CCN2CCN(c3nccc4occc34)CC2)CC1 [Example 6, N-{trans-4-[2-(4-Furo[3,2-c]pyridin-4-yl-piperazin-1-yl)-ethyl]-cyclohexyl}-3-hydroxy-propionamide]		959 nM	19.9 nM		10.3 nM
CO[C@H]1CC[C@H](CC(=O)N[C@H]2CC[C@H](CCN3CCN(c4nccc5sccc45)CC3)CC2)CC1 [Example 20, 2-(trans-4-Methoxy-cyclohexyl)-N-{trans-4-[2-(4-thieno[3,2-c]pyridin-4-yl-piperazin-1-yl)-ethyl]-cyclohexyl}-acetamide]		302 nM	3 nM		2.5 nM
CCS(=O)(=O)N[C@H]1CC[C@H](CCN2CCN(c3nccc4occc34)CC2)CC1 [Example 16, Ethanesulfonic acid {trans-4-[2-(4-furo[3,2-c]pyridin-4-yl-piperazin-1-yl)-ethyl]-cyclohexyl}-amide]		780 nM	30.6 nM		8.5 nM
O=C(C[C@H]1CC[C@H](O)CC1)N[C@H]1CC[C@H](CCN2CCN(c3nccc4sccc34)CC2)CC1 [Example 28, 2-(trans-4-Hydroxy-cyclohexyl)-N-{trans-4-[2-(4-thieno[3,2-c]pyridin-4-yl-piperazin-1-yl)-ethyl]-cyclohexyl}-acetamide]		392 nM	6 nM		4 nM
CN(C)S(=O)(=O)N[C@H]1CC[C@H](CCN2CCN(c3nccc4occc34)CC2)CC1 [Example 17, N′-(trans-4{[4-(furo[3,2-c]pyridin-4-yl)-piperazin-1-yl]-ethyl}cyclohexyl)-N,N-dimethylsulfamide]		539 nM	33 nM		5.3 nM
O=C(CO)N[C@H]1CC[C@H](CCN2CCN(c3nccc4sccc34)CC2)CC1 [Example 27, 2-Hydroxy-N-{trans-4-[2-(4-thieno[3,2-c]pyridin-4-yl-piperazin-1-yl)-ethyl]-cyclohexyl}-acetamide]		218 nM	1.4 nM		1.4 nM
O=C(N[C@H]1CC[C@H](CCN2CCN(c3nccc4c3CCO4)CC2)CC1)C1CCCOC1 (mixture of isomers) [Example 53, rac-Tetrahydro-pyran-3-carboxylic acid trans-(4-{2-[4-(2,3-dihydro-furo[3,2-c]pyridin-4-yl)-piperazin-1-yl]-ethyl}-cyclohexyl)-amide]	216 °C		28.8 nM		
CCOCC(=O)N[C@H]1CC[C@H](CCN2CCN(c3nccc4occc34)CC2)CC1 [Example 12, 2-Ethoxy-N-{trans-4-[2-(4-furo[3,2-c]pyridin-4-yl-piperazin-1-yl)-ethyl]-cyclohexyl}-acetamide]		996 nM	150 nM		7.4 nM
